Source: patent US20250376461A1, “INDAZOLE DERIVATIVES FOR TREATING TRPM3-MEDIATED DISORDERS” (Katholieke Universiteit Leuven, priority 2022, published 2025)

Target: T1, mouse TRPM3α2 (mTRPM3) ion channel (Mus musculus, UniProt J9SQF3)
T1 construct: expressed in transfected cells; host or cells: flip-in HEK293
Experiment: TRPM3 ion channel driven Ca2+ uptake, Fluo-4 AM assay, mTRPM3alpha2 overexpressing flip-in HEK293 cells stimulated with pregnenolone sulfate (50 μM)
Type: cell-based
Settings: mTRPM3 overexpressing HEK293 cells stimulated with pregnenolone sulfate (50 μM), activity ranges A, B, C
Description: Monitoring the TRPM3 Ion Channel Driven Ca2+ Uptake.
In order to monitor the inhibition of the mouse TRPM3α2 (mTRPM3) ion channel by the compounds of the invention, a cellular system making use of an mTRPM3alpha2 or hTRPM3 overexpressing cell line (flip-in HEK293) was used. The TRPM3 channel was stimulated/opened with Pregnenolone sulfate (PS) (50 μM) which results in Ca^2+ influx.
For mTRPM3, the intracellular Ca^2+ was measured with a Calcium responsive dye, Fluor-4 AM ester (Invitrogen). Cells were cultured until a confluence of 80-90%, washed with Versene (Invitrogen) and detached from the surface by a short incubation with 0.05% Trypsin (Invitrogen). The trypsination process was stopped by the addition of complete cell culture medium (DMEM, glutamax, 10% FCS, NEAA, Pen-Strep). Cells were collected and resuspended in Krebs buffer without Calcium at RT.
Prior the cell seeding (±2000 cells/well into a black, 384 well plate (Greiner)) the diluted compound was added in the assay plate, together with the PS dissolved in Krebs buffer containing Calcium. […] Directly after cell addition the plates were read on an Envision fluorescence reader (Perkin Elmer) by an Excitation of 485 nm and emission at 535 nm.
Channel inhibition was calculated compared to a non-PS stimulated control versus a condition stimulated with PS (50 μM) with vehicle. The ability of the compounds of the invention to inhibit this activity was determined as: Percentage inhibition=[1−((RFU determined for sample with test compound present−RFU determined for sample with positive control inhibitor) divided by (RFU determined in the presence of vehicle−RFU determined for sample with positive control inhibitor))]*100.
The activities of the Example compounds cpd 001-262 tested are depicted in the table below. All tested compounds show an activity in the Fluo-4 AM assay. The activity ranges A, B and C refer to IC50 values in the Fluo-4 AM assay as follows: “A”: IC50<1 μM; “B”: 1 μM≤IC50≤20 μM and “C”: IC50>20 μM.

T1 sequence (J9SQF3 1-1709 isoform J9SQF3-12): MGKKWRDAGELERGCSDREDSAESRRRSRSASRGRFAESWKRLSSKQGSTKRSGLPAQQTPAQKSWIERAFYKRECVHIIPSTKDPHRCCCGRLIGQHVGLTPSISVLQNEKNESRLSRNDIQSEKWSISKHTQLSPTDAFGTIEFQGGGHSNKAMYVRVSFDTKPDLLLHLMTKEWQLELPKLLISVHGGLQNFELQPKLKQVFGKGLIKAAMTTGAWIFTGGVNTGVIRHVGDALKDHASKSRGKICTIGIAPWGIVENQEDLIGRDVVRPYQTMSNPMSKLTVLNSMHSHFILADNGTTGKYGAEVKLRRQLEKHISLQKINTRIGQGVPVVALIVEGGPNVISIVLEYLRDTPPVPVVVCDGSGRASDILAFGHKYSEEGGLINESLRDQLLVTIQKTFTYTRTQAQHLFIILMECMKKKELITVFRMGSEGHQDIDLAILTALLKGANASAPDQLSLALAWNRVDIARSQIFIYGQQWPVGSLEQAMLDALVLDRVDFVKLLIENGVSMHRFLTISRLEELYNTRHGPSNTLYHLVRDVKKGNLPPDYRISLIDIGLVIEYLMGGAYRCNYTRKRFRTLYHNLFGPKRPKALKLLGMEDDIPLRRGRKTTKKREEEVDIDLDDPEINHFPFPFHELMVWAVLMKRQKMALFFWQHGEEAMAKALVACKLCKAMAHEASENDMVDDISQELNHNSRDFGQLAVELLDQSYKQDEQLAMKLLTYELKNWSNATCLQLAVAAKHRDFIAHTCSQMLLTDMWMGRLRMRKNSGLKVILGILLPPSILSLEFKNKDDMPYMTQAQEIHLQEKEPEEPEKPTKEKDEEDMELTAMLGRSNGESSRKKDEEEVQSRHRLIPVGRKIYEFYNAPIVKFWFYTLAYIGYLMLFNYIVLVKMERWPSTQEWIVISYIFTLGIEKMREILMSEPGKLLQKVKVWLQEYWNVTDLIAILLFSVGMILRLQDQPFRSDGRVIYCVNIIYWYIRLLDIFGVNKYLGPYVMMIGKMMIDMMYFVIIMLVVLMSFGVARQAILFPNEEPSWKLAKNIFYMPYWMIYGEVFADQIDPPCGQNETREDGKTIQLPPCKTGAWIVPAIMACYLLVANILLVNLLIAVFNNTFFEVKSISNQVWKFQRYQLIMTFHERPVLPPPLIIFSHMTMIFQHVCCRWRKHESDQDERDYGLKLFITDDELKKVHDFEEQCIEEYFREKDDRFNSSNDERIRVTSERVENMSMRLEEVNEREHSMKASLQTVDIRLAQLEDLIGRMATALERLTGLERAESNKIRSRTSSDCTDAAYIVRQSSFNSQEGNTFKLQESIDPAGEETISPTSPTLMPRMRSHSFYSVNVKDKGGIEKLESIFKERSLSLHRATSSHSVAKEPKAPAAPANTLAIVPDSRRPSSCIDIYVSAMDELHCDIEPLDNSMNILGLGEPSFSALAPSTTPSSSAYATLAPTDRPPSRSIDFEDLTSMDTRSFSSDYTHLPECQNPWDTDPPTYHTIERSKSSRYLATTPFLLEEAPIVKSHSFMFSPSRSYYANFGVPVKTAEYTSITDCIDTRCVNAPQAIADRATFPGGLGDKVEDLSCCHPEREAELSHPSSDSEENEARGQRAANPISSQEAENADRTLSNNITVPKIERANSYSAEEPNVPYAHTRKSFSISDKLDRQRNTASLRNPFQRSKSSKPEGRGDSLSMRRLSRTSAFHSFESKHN

Compound | IC50 [µM]
Cn1nc2ccc(OCc3ccccc3)cc2c1C(=O)NC(CO)C(F)(F)F (stereo not drawn) [Cpd 091, 5-(benzyloxy)-2-methyl-N-(1,1,1-trifluoro-3-hydroxypropan-2-yl)-2H-indazole-3-carboxamide] | 1 to 20
Cn1nc2ccc(OCC3CC3)cc2c1C(=O)NCCNS(C)(=O)=O [Cpd 140, 5-(cyclopropylmethoxy)-N-(2-methanesulfonamidoethyl)-2-methyl-2H-indazole-3-carboxamide] | > 20
COCC(C)(CC(F)F)NC(=O)c1c2cc(OCc3ccccn3)ccc2nn1C (single isomer, unassigned) [Cpd 230 - En2] | 1 to 20
Cn1nc2ccc(OCc3ccccn3)cc2c1C(=O)NC(C)(CO)CC(F)F (single isomer, unassigned) [Cpd 201 - En1, N-(4,4-difluoro-1-hydroxy-2-methylbutan-2-yl)-2-methyl-5-[(pyridin-2-yl)methoxy]-2H-indazole-3-carboxamide] | < 1
COCC(C)(CC(F)F)NC(=O)c1c2cc(OCc3ccccn3)ccc2nn1C (single isomer, unassigned) [Cpd 230 - En1] | > 20
Cn1nc2ccc(OCc3ccccc3F)cc2c1C(=O)NC(CO)CO [Cpd 262, N-(1,3-dihydroxypropan-2-yl)-5-[(2-fluorophenyl)methoxy]-2-methyl-2H-indazole-3-carboxamide] | 1 to 20
CCn1nc2ccc(OCc3ccccn3)cc2c1C(=O)NC(C)(CO)C(N)=O (single isomer, unassigned) [Cpd 188 - En1, 2-({2-ethyl-5-[(pyridin-2-yl)methoxy]-2H-indazol-3-yl}formamido)-3-hydroxy-2-methylpropanamide] | 1 to 20
Cn1nc2ccc(OCC(F)F)cc2c1C(=O)NC(C)(CO)C(N)=O (single isomer, unassigned) [Cpd 187 - En2] | 1 to 20
Cn1nc2ccc(OCc3ccccn3)cc2c1C(=O)NC(CO)C(C(F)(F)F)C(F)(F)F (single isomer, unassigned) [Cpd 227 - En2] | > 20
Cn1nccc1COc1ccc2nn(C)c(C(=O)NC3CCN(CC(F)(F)F)C3)c2c1 (stereo not drawn) [Cpd 050, 2-methyl-5-[(1-methyl-1H-pyrazol-5-yl)methoxy]-N-[1-(2,2,2-trifluoroethyl)pyrrolidin-3-yl]-2H-indazole-3-carboxamide] | 1 to 20
Cn1nc2ccc(OCc3ccccn3)cc2c1C(=O)NC1CNCC(F)(F)C1 (single isomer, unassigned) [Cpd 214 - En1] | > 20
Cn1nc2ccc(OCc3cccnc3C(F)(F)F)cc2c1C(=O)NC(C)(CO)CC(F)F (single isomer, unassigned) [Cpd 202 - En2] | < 1
Cn1nc2ccc(OCC3CCCC3)cc2c1C(=O)NC(C)(C)C(N)=O [Cpd 145, 2-{[5-(cyclopentylmethoxy)-2-methyl-2H-indazol-3-yl]formamido}-2-methylpropanamide] | 1 to 20
Cn1nc2ccc(OCc3ccccn3)cc2c1C(=O)NCc1c(F)cccc1C(F)(F)F [Cpd 209, N-{[2-fluoro-6-(trifluoromethyl)phenyl]methyl}-2-methyl-5-[(pyridin-2-yl)methoxy]-2H-indazole-3-carboxamide] | > 20
Cn1nc2ccc(OCC3CCC3)cc2c1C(=O)N[C@@H](CO)C(N)=O [Cpd 130, (2S)-2-{[5-(cyclobutylmethoxy)-2-methyl-2H-indazol-3-yl]formamido}-3-hydroxypropanamide] | < 1
CN(C)C(=O)C(C)(CO)NC(=O)c1c2cc(OCc3cccnc3C(F)(F)F)ccc2nn1C (single isomer, unassigned) [Cpd 193 - En1, 3-hydroxy-N,N,2-trimethyl-2-[(2-methyl-5-{[2-(trifluoromethyl)pyridin-3-yl]methoxy}-2H-indazol-3-yl)formamido]propanamide] | 1 to 20
Cn1nc2ccc(OCc3ccccn3)cc2c1C(=O)NC(CO)C(C(F)(F)F)C(F)(F)F (single isomer, unassigned) [Cpd 227 - En1] | < 1

Second part, the molecule after the results:

IC50 [µM] | Compound
< 1 | Cc1ncsc1COc1ccc2nn(C)c(C(=O)NC3(CO)CCNC3=O)c2c1 (single isomer, unassigned) [Cpd 163 - En1, N-[3-(hydroxymethyl)-2-oxopyrrolidin-3-yl]-2-methyl-5-[(4-methyl-1,3-thiazol-5-yl)methoxy]-2H-indazole-3-carboxamide]
> 20 | Cn1nc2ccc(OCc3cccnc3C(F)(F)F)cc2c1C(=O)NCC(C)(C)CO [Cpd 019, N-(3-hydroxy-2,2-dimethylpropyl)-2-methyl-5-{[2-(trifluoromethyl)pyridin-3-yl]methoxy}-2H-indazole-3-carboxamide]
1 to 20 | Cc1ncsc1COc1ccc2nn(C)c(C(=O)NC(C)(C)CO)c2c1 [Cpd 005, N-(1-hydroxy-2-methylpropan-2-yl)-2-methyl-5-[(4-methyl-1,3-thiazol-5-yl)methoxy]-2H-indazole-3-carboxamide]
1 to 20 | Cn1nc2ccc(OCc3ccccn3)cc2c1C(=O)NC(CO)CO [Cpd 259, N-(1,3-dihydroxypropan-2-yl)-2-methyl-5-[(pyridin-2-yl)methoxy]-2H-indazole-3-carboxamide]
1 to 20 | Cn1ccc(COc2ccc3nn(C)c(C(=O)NC(C)(CO)C(N)=O)c3c2)n1 (single isomer, unassigned) [Cpd 155 - En2]
> 20 | Cn1nccc1COc1ccc2nn(C)c(C(=O)NC3(CO)CCOCC3)c2c1 [Cpd 058, N-[4-(hydroxymethyl)oxan-4-yl]-2-methyl-5-[(1-methyl-1H-pyrazol-5-yl)methoxy]-2H-indazole-3-carboxamide]
> 20 | Cc1ncc(COc2ccc3nn(C)c(C(=O)NC4(CO)CC4)c3c2)s1 [Cpd 114, N-[1-(hydroxymethyl)cyclopropyl]-2-methyl-5-[(2-methyl-1,3-thiazol-5-yl)methoxy]-2H-indazole-3-carboxamide]
> 20 | Cn1nc2ccc(OCc3ccccn3)cc2c1C(=O)NCCO [Cpd 205, N-(2-hydroxyethyl)-2-methyl-5-[(pyridin-2-yl)methoxy]-2H-indazole-3-carboxamide]
1 to 20 | Cc1ncc(COc2ccc3nn(C)c(C(=O)NC(C)(CO)C(N)=O)c3c2)s1 (single isomer, unassigned) [Cpd 157 - En1, 3-hydroxy-2-methyl-2-({2-methyl-5-[(2-methyl-1,3-thiazol-5-yl)methoxy]-2H-indazol-3-yl}formamido)propanamide]
1 to 20 | Cc1ncsc1COc1ccc2nn(C)c(C(=O)NC3CCN(CC(F)(F)F)C3)c2c1 (stereo not drawn) [Cpd 057, 2-methyl-5-[(4-methyl-1,3-thiazol-5-yl)methoxy]-N-[1-(2,2,2-trifluoroethyl)pyrrolidin-3-yl]-2H-indazole-3-carboxamide]
> 20 | Cn1nccc1COc1ccc2nn(C)c(C(=O)NC3COCC3O)c2c1 (single isomer, unassigned) [Cpd 056 - Dia2]
1 to 20 | Cc1ccc(COc2ccc3nn(C)c(C(=O)NC4(C(N)=O)CCOC4)c3c2)cn1 (single isomer, unassigned) [Cpd 164 - En2, N-(3-carbamoyloxolan-3-yl)-2-methyl-5-[(6-methylpyridin-3-yl)methoxy]-2H-indazole-3-carboxamide]
1 to 20 | Cc1ncsc1COc1ccc2nn(C)c(C(=O)NC3(CO)COC3)c2c1 [Cpd 109, N-[3-(hydroxymethyl)oxetan-3-yl]-2-methyl-5-[(4-methyl-1,3-thiazol-5-yl)methoxy]-2H-indazole-3-carboxamide]
> 20 | Cc1ncsc1COc1ccc2nn(C)c(C(=O)NC3CCN(C)CC3)c2c1 [Cpd 112, 2-methyl-5-[(4-methyl-1,3-thiazol-5-yl)methoxy]-N-(1-methylpiperidin-4-yl)-2H-indazole-3-carboxamide]
1 to 20 | Cc1ncsc1COc1ccc2nn(C)c(C(=O)NC3CNCC(F)(F)C3)c2c1 (single isomer, unassigned) [Cpd 213 - En1]
1 to 20 | Cc1ncsc1COc1ccc2nn(C)c(C(=O)NC3CCNCC3(F)F)c2c1 (single isomer, unassigned) [Cpd 132 - En1]
> 20 | Cn1nc2ccc(OCc3ccccn3)cc2c1C(=O)NCC(F)(F)F [Cpd 204, 2-methyl-5-[(pyridin-2-yl)methoxy]-N-(2,2,2-trifluoroethyl)-2H-indazole-3-carboxamide]
1 to 20 | Cn1nc2ccc(OCc3ccccc3)cc2c1C(=O)NCC(C)(C)CO [Cpd 020, 5-(benzyloxy)-N-(3-hydroxy-2,2-dimethylpropyl)-2-methyl-2H-indazole-3-carboxamide]
1 to 20 | Cn1nc2ccc(OCc3ccccc3F)cc2c1C(=O)NC1(CO)CC1 [Cpd 095, 5-[(2-fluorophenyl)methoxy]-N-[1-(hydroxymethyl)cyclopropyl]-2-methyl-2H-indazole-3-carboxamide]
